Data reported in patent US8097620B2, “Diazaquinolones that inhibit prolyl hydroxylase activity” (Amgen Inc., priority 2007, dated 2012).

Target: HIF PHD2 (Homo sapiens, UniProt Q9GZT9)
Assay: PHD2 inhibition assay (TR-FRET, VCB-Eu detection of hydroxylated P564-HIF1α peptide)
Format: biochemical
Details: 2 nM PHD2, 100 nM P564-HIF1α peptide, 0.25 μM 2-oxoglutarate, 100 μM FeCl2, 2 mM ascorbic acid, pH 6
Procedure: Inhibition of HIF PHD2 activity was quantified utilizing the TR-FRET technology. HIF PHD2 catalyzes a hydroxyl modification on the proline residue of the P564-HIF1α peptide substrate (Biotin-[…] (SEQ ID NO: 7)) resulting in recognition and binding of the europylated Von Hippel-Lindau protein (pVHL), elongin B and elongin C heterotrimeric (VCB-Eu) complex.
The PHD2 inhibition assay was executed by addition of freshly dissolved FeCl2 to 178.57 μM (100 μM final concentration) in PHD2 Reaction Buffer containing 30 mM MES, pH 6, 10 mM NaCl, 0.25% Brij-35, 0.01% BSA, and 1% DMSO. 28 μL of the iron solution and 2 μL of inhibitor compounds serially diluted in 100% DMSO (5% DMSO final) were added to black polypropylene 96-well microtiter plates. To that, 10 μL of 10 nM PHD2 (2 nM final) was added to all wells of the plate except for the 8 wells of column 12 (LO control), and allowed to incubate at room temperature on the shaker for one hour. Column 6 was the HI control containing PHD2 enzyme and 5% DMSO vehicle, but no inhibitor compound. To initiate the PHD2 enzymatic reaction, 10 μL of a solution containing 500 nM P564-HIF1α peptide (100 nM final), 10 mM ascorbic acid (2 mM final), and 1.25 μM 2-oxoglutarate (α-ketoglutarate; 0.25 μM final) in PHD2 Reaction Buffer was added to all wells of the plate and allowed to incubate on the shaker at room temperature for one hour.
The reaction was terminated by addition of 25 μL TR-FRET Buffer (50 mM TRIS-HCl, pH 9, 100 mM NaCl, 0.05% BSA, and 0.5% Tween-20) containing 150 mM succinate (product inhibitor; 50 mM final), 75 nM streptavidin-APC (25 nM final), and 7.5 nM VCB-Eu (2.5 nM final). The TR-FRET detection reagents were placed on a shaker for 1 hour to reach binding equilibrium before reading on the Discovery platform (PerkinElmer). Europium is excited at 315 nm and phosphoresces at 615 nm with a large Stoke's shift. APC, in turn, emits at 655 nm upon excitation at 615 nm. The TR-FRET signal is measured as the ratio of the APC 655 nm signal divided by the internal europium reference 615 nm emission signal.
The POC (percentage of control) was determined by comparing the signal from hydroxylated peptide substrate in the enzyme reaction containing inhibitor compound with that from PHD2 enzyme with DMSO vehicle alone (HI control), and no enzyme (LO control). POC was calculated using the formula: % control (POC)=(cpd−average LO)/(average HI−average LO)*100. Data (consisting of POC and inhibitor concentration in μM) was fitted to a 4-parameter equation (y=A+((B−A)/(1+((x/C)^D))), where A is the minimum y (POC) value, B is the maximum y (POC), C is the x (cpd concentration) at the point of inflection and D is the slope factor) using a Levenburg-Marquardt non-linear regression algorithm.

Sequence of HIF PHD2 (Q9GZT9 whole entry): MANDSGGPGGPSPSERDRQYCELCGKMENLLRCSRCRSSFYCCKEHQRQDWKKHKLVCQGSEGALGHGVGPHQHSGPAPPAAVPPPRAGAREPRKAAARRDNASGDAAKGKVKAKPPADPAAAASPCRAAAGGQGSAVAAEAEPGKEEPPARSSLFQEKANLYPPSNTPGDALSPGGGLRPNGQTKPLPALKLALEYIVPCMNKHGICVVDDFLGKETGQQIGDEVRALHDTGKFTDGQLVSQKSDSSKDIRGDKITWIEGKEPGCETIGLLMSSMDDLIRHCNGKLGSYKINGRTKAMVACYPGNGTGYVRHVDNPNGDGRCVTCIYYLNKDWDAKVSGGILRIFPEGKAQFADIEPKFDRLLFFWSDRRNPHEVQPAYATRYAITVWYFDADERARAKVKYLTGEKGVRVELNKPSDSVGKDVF

Structure (SMILES) | IC50
Cn1c(=O)c(C(=O)NCC(=O)O)c(O)c2cnc(-c3ccoc3)nc21 [Example 30, 2-(2-(furan-3-yl)-5-hydroxy-8-methyl-7-oxo-7,8-dihydropyrido[2,3-d]pyrimidine-6-carboxamido)acetic acid] | 5.3 nM
COc1ccccc1-c1ncc2c(O)c(C(=O)NCC(=O)O)c(=O)n(C)c2n1 [Example 31, 2-(5-hydroxy-2-(2-methoxyphenyl)-8-methyl-7-oxo-7,8-dihydropyrido[2,3-d]pyrimidine-6-carboxamido)acetic acid] | 2.4 nM
Cn1c(=O)c(C(=O)NCC(=O)O)c(O)c2cnc(-c3ccc(N4CCCCC4)cc3)nc21 [Example 32, 2-(5-hydroxy-8-methyl-7-oxo-2-(4-(piperidin-1-yl)phenyl)-7,8-dihydropyrido[2,3-d]pyrimidine-6-carboxamido)acetic acid] | 5.3 nM
COc1ccc(-c2ncc3c(O)c(C(=O)NCC(=O)O)c(=O)n(C)c3n2)cc1 [Example 33, 2-(5-hydroxy-2-(4-methoxyphenyl)-8-methyl-7-oxo-7,8-dihydropyrido[2,3-d]pyrimidine-6-carboxamido)acetic acid] | 6.4 nM
COc1cccc(-c2ncc3c(O)c(C(=O)NCC(=O)O)c(=O)n(C)c3n2)c1 [Example 34, 2-(5-hydroxy-2-(3-methoxyphenyl)-8-methyl-7-oxo-7,8-dihydropyrido[2,3-d]pyrimidine-6-carboxamido)acetic acid] | 10 nM
Cn1c(=O)c(C(=O)NCC(=O)O)c(O)c2cnc(-c3cccc4ncccc34)nc21 [Example 35, 2-(5-hydroxy-8-methyl-7-oxo-2-(quinolin-5-yl)-7,8-dihydropyrido[2,3-d]pyrimidine-6-carboxamido)acetic acid] | 2.4 nM
Cn1c(=O)c(C(=O)NCC(=O)O)c(O)c2cnc(-c3cc4ccccc4s3)nc21 [Example 36, 2-(2-(benzo[b]thiophen-2-yl)-5-hydroxy-8-methyl-7-oxo-7,8-dihydropyrido[2,3-d]pyrimidine-6-carboxamido)acetic acid] | 7.4 nM
Cc1cccc(-c2ncc3c(O)c(C(=O)NCC(=O)O)c(=O)n(C)c3n2)c1 [Example 37, 2-(5-hydroxy-8-methyl-7-oxo-2-m-tolyl-7,8-dihydropyrido[2,3-d]pyrimidine-6-carboxamido)acetic acid] | 8.8 nM
Cn1c(=O)c(C(=O)NCC(=O)O)c(O)c2cnc(-c3ccco3)nc21 [Example 38, 2-(2-(furan-2-yl)-5-hydroxy-8-methyl-7-oxo-7,8-dihydropyrido[2,3-d]pyrimidine-6-carboxamido)acetic acid] | 2.5 nM
Cn1c(=O)c(C(=O)NCC(=O)O)c(O)c2cnc(-c3ccc(Cl)cc3)nc21 [Example 39, 2-(2-(4-chlorophenyl)-5-hydroxy-8-methyl-7-oxo-7,8-dihydropyrido[2,3-d]pyrimidine-6-carboxamido)acetic acid] | 7.8 nM
Cn1c(=O)c(C(=O)NCC(=O)O)c(O)c2cnc(-c3csc4ccccc34)nc21 [Example 40, 2-(2-(benzo[b]thiophen-3-yl)-5-hydroxy-8-methyl-7-oxo-7,8-dihydropyrido[2,3-d]pyrimidine-6-carboxamido)acetic acid] | 13 nM
Cn1c(=O)c(C(=O)NCC(=O)O)c(O)c2cnc(-c3ccc4ccccc4c3)nc21 [Example 41, 2-(5-hydroxy-8-methyl-2-(naphthalen-2-yl)-7-oxo-7,8-dihydropyrido[2,3-d]pyrimidine-6-carboxamido)acetic acid] | 9.4 nM
Cn1c(=O)c(C(=O)NCC(=O)O)c(O)c2cnc(-c3cc4ccccc4[nH]3)nc21 [Example 42, 2-(5-hydroxy-2-(1H-indol-2-yl)-8-methyl-7-oxo-7,8-dihydropyrido[2,3-d]pyrimidine-6-carboxamido)acetic acid] | 3.1 nM
Cn1c(=O)c(C(=O)NCC(=O)O)c(O)c2cnc(-c3cccc(Cl)c3)nc21 [Example 43, 2-(2-(3-chlorophenyl)-5-hydroxy-8-methyl-7-oxo-7,8-dihydropyrido[2,3-d]pyrimidine-6-carboxamido)acetic acid] | 7.9 nM
Cn1ccc2cc(-c3ncc4c(O)c(C(=O)NCC(=O)O)c(=O)n(C)c4n3)ccc21 [Example 44, 2-(5-hydroxy-8-methyl-2-(1-methyl-1H-indol-5-yl)-7-oxo-7,8-dihydropyrido[2,3-d]pyrimidine-6-carboxamido)acetic acid] | 7.8 nM
Cn1c(=O)c(C(=O)NCC(=O)O)c(O)c2cnc(-c3ccnc4ccccc34)nc21 [Example 45, 2-(5-hydroxy-8-methyl-7-oxo-2-(quinolin-4-yl)-7,8-dihydropyrido[2,3-d]pyrimidine-6-carboxamido)acetic acid] | 2 nM
Cn1c(=O)c(C(=O)NCC(=O)O)c(O)c2cnc(-c3cccc4ccccc34)nc21 [Example 46, 2-(5-hydroxy-8-methyl-2-(naphthalen-1-yl)-7-oxo-7,8-dihydropyrido[2,3-d]pyrimidine-6-carboxamido)acetic acid] | 2.3 nM
Cc1ccc(-c2ncc3c(O)c(C(=O)NCC(=O)O)c(=O)n(C)c3n2)cc1 [Example 47, 2-(5-hydroxy-8-methyl-7-oxo-2-p-tolyl-7,8-dihydropyrido[2,3-d]pyrimidine-6-carboxamido)acetic acid] | 6.7 nM
Cn1c(=O)c(C(=O)NCC(=O)O)c(O)c2cnc(-c3ccc4occc4c3)nc21 [Example 48, 2-(2-(benzofuran-5-yl)-5-hydroxy-8-methyl-7-oxo-7,8-dihydropyrido[2,3-d]pyrimidine-6-carboxamido)acetic acid] | 7.1 nM
Cn1c(=O)c(C(=O)NCC(=O)O)c(O)c2cnc(-c3cnc4ccccc4c3)nc21 [Example 49, 2-(5-hydroxy-8-methyl-7-oxo-2-(quinolin-3-yl)-7,8-dihydropyrido[2,3-d]pyrimidine-6-carboxamido)acetic acid] | 3.2 nM
Cc1ccccc1-c1ncc2c(O)c(C(=O)NCC(=O)O)c(=O)n(C)c2n1 [Example 50, 2-(5-hydroxy-8-methyl-7-oxo-2-o-tolyl-7,8-dihydropyrido[2,3-d]pyrimidine-6-carboxamido)acetic acid] | 3.6 nM
Cn1c(=O)c(C(=O)NCC(=O)O)c(O)c2cnc(-c3ccc4sccc4c3)nc21 [Example 51, 2-(2-(benzo[b]thiophen-5-yl)-5-hydroxy-8-methyl-7-oxo-7,8-dihydropyrido[2,3-d]pyrimidine-6-carboxamido)acetic acid] | 9.4 nM
Cn1c(=O)c(C(=O)NCC(=O)O)c(O)c2cnc(-c3ccc(C#N)cc3)nc21 [Example 52, 2-(2-(4-cyanophenyl)-5-hydroxy-8-methyl-7-oxo-7,8-dihydropyrido[2,3-d]pyrimidine-6-carboxamido)acetic acid] | 4.1 nM
Cn1c(=O)c(C(=O)NCC(=O)O)c(O)c2cnc(-c3cccc(N4CCOCC4)c3)nc21 [Example 53, 2-(5-hydroxy-8-methyl-2-(3-morpholinophenyl)-7-oxo-7,8-dihydropyrido[2,3-d]pyrimidine-6-carboxamido)acetic acid] | 5 nM
Cn1c(=O)c(C(=O)NCC(=O)O)c(O)c2cnc(-c3ccsc3)nc21 [Example 54, 2-(5-hydroxy-8-methyl-7-oxo-2-(thiophen-3-yl)-7,8-dihydropyrido[2,3-d]pyrimidine-6-carboxamido)acetic acid] | 4 nM
Cn1c(=O)c(C(=O)NCC(=O)O)c(O)c2cnc(-c3cccnc3)nc21 [Example 55, 2-(5-hydroxy-8-methyl-7-oxo-2-(pyridin-3-yl)-7,8-dihydropyrido[2,3-d]pyrimidine-6-carboxamido)acetic acid] | 4.45 nM
Cn1c(=O)c(C(=O)NCC(=O)O)c(O)c2cnc(-c3cccc4[nH]ccc34)nc21 [Example 56, 2-(5-hydroxy-2-(1H-indol-4-yl)-8-methyl-7-oxo-7,8-dihydropyrido[2,3-d]pyrimidine-6-carboxamido)acetic acid] | 5.3 nM
Cn1c(-c2ncc3c(O)c(C(=O)NCC(=O)O)c(=O)n(C)c3n2)cc2ccccc21 [Example 57, 2-(5-hydroxy-8-methyl-2-(1-methyl-1H-indol-2-yl)-7-oxo-7,8-dihydropyrido[2,3-d]pyrimidine-6-carboxamido)acetic acid] | 14 nM
